Experimental data as given in ChEMBL document CHEMBL3885881, “DrugMatrix”.

Species: Rattus norvegicus
Assay: DrugMatrix - Regimen: Daily Repeat
Format: toxicity, organism-based, Sprague-Dawley
Design: regimen Daily Repeat, gender Male, age 6-8 weeks
Conditions: in vivo, iv, vehicle 100 % SALINE; for ABSOLUTE BASOPHIL / ABSOLUTE EOSINOPHIL / ABSOLUTE LYMPHOCYTE / ABSOLUTE MONOCYTE / ABSOLUTE SEGMENTED NEUTROPHIL / BASOPHIL / EOSINOPHIL / ERYTHROCYTE COUNT / HEMATOCRIT / HEMOGLOBIN / LEUKOCYTE COUNT / LYMPHOCYTE / MEAN CORPUSCULAR HEMOGLOBIN / MEAN CORPUSCULAR HEMOGLOBIN CONCENTRATION / MEAN CORPUSCULAR VOLUME / MONOCYTE / NEUTROPHIL / NUCLEATED RED BLOOD CELLS / PLATELET COUNT: tissue Blood; for ALANINE AMINOTRANSFERASE / ALBUMIN / ALKALINE PHOSPHATASE / ASPARTATE AMINOTRANSFERASE / BLOOD UREA NITROGEN / CARBON DIOXIDE / CHLORIDE / CHOLESTEROL / CREATINE PHOSPHOKINASE / CREATININE / GLUCOSE / LACTATE DEHYDROGENASE / LIPASE / PHOSPHORUS / POTASSIUM / SODIUM / TOTAL BILIRUBIN / TOTAL PROTEIN / URIC ACID: tissue Plasma
[1] = 0.005 mg/kg, 120 h, dose level Low, time 5 day
[2] = 0.05 mg/kg, 72 h, dose level High, time 3 day
[3] = 0.05 mg/kg, 120 h, dose level High, time 5 day

CC(=O)O[C@H]1C[C@@H]2CC[C@@H]3[C@H](CC[C@@]4(C)[C@H]3C[C@H]([N+]3(C)CCCCC3)[C@@H]4OC(C)=O)[C@@]2(C)C[C@@H]1N1CCCCC1.[Br-] [VECURONIUM BROMIDE]
ABSOLUTE BASOPHIL [1]: 0 CELLS/uL
ABSOLUTE EOSINOPHIL [1]: 82.33 CELLS/uL
ABSOLUTE LYMPHOCYTE [1]: 12022.67 CELLS/uL
ABSOLUTE MONOCYTE [1]: 265.33 CELLS/uL
ABSOLUTE SEGMENTED NEUTROPHIL [1]: 796.33 CELLS/uL
BASOPHIL [1]: 0%
EOSINOPHIL [1]: 0.67%
ERYTHROCYTE COUNT [1]: 5.48 x10E6/uL
HEMATOCRIT [1]: 34.87%
HEMOGLOBIN [1]: 13.83 G/DL
LEUKOCYTE COUNT [1]: 13.17 x10E3/uL
LYMPHOCYTE [1]: 91%
MEAN CORPUSCULAR HEMOGLOBIN [1]: 25.23 pg
MEAN CORPUSCULAR HEMOGLOBIN CONCENTRATION [1]: 39.7 G/DL
MEAN CORPUSCULAR VOLUME [1]: 63.63 fL
MONOCYTE [1]: 2%
NEUTROPHIL [1]: 6.33%
NUCLEATED RED BLOOD CELLS [1]: 0 /100WBC
PLATELET COUNT [1]: 1117 x10E3/uL
ALANINE AMINOTRANSFERASE [1]: 68.67 u/L
ALBUMIN [1]: 4.17 G/DL
ALKALINE PHOSPHATASE [1]: 419 u/L
ASPARTATE AMINOTRANSFERASE [1]: 85 u/L
BLOOD UREA NITROGEN [1]: 19.33 mg/dL
CARBON DIOXIDE [1]: 30 mmol/L
CHLORIDE [1]: 101.33 MEQ/L
CHOLESTEROL [1]: 79 mg/dL
CREATINE PHOSPHOKINASE [1]: 251.67 u/L
CREATININE [1]: 0.25 mg/dL
GLUCOSE [1]: 172 mg/dL
LACTATE DEHYDROGENASE [1]: 116.67 u/L
LIPASE [1]: 10.33 u/L
PHOSPHORUS [1]: 12 mg/dL
POTASSIUM [1]: 5.82 MEQ/L
SODIUM [1]: 144.07 MEQ/L
TOTAL BILIRUBIN [1]: 0.2 mg/dL
TOTAL PROTEIN [1]: 5.9 G/DL
URIC ACID [1]: 1.27 mg/dL
ABSOLUTE BASOPHIL [2]: 0 CELLS/uL
ABSOLUTE EOSINOPHIL [2]: 0 CELLS/uL
ABSOLUTE LYMPHOCYTE [2]: 14697.33 CELLS/uL
ABSOLUTE MONOCYTE [2]: 387 CELLS/uL
ABSOLUTE SEGMENTED NEUTROPHIL [2]: 1049 CELLS/uL
BASOPHIL [2]: 0%
EOSINOPHIL [2]: 0%
ERYTHROCYTE COUNT [2]: 5.35 x10E6/uL
HEMATOCRIT [2]: 33.93%
HEMOGLOBIN [2]: 13.67 G/DL
LEUKOCYTE COUNT [2]: 16.13 x10E3/uL
LYMPHOCYTE [2]: 91.33%
MEAN CORPUSCULAR HEMOGLOBIN [2]: 25.53 pg
MEAN CORPUSCULAR HEMOGLOBIN CONCENTRATION [2]: 40.27 G/DL
MEAN CORPUSCULAR VOLUME [2]: 63.37 fL
MONOCYTE [2]: 2.33%
NEUTROPHIL [2]: 6.33%
NUCLEATED RED BLOOD CELLS [2]: 0 /100WBC
PLATELET COUNT [2]: 1089.33 x10E3/uL
ALANINE AMINOTRANSFERASE [2]: 70.67 u/L
ALBUMIN [2]: 4.17 G/DL
ALKALINE PHOSPHATASE [2]: 375.33 u/L
ASPARTATE AMINOTRANSFERASE [2]: 108 u/L
BLOOD UREA NITROGEN [2]: 15.67 mg/dL
CARBON DIOXIDE [2]: 28.33 mmol/L
CHLORIDE [2]: 103.33 MEQ/L
CHOLESTEROL [2]: 83 mg/dL
CREATINE PHOSPHOKINASE [2]: 435 u/L
CREATININE [2]: 0.25 mg/dL
GLUCOSE [2]: 145.33 mg/dL
LACTATE DEHYDROGENASE [2]: 607.67 u/L
LIPASE [2]: 12 u/L
PHOSPHORUS [2]: 12.1 mg/dL
POTASSIUM [2]: 6.48 MEQ/L
SODIUM [2]: 142.47 MEQ/L
TOTAL BILIRUBIN [2]: 0.17 mg/dL
TOTAL PROTEIN [2]: 5.87 G/DL
URIC ACID [2]: 1.4 mg/dL
ABSOLUTE BASOPHIL [3]: 0 CELLS/uL
ABSOLUTE EOSINOPHIL [3]: 0 CELLS/uL
ABSOLUTE LYMPHOCYTE [3]: 14510.33 CELLS/uL
ABSOLUTE MONOCYTE [3]: 51 CELLS/uL
ABSOLUTE SEGMENTED NEUTROPHIL [3]: 705.33 CELLS/uL
BASOPHIL [3]: 0%
EOSINOPHIL [3]: 0%
ERYTHROCYTE COUNT [3]: 5.55 x10E6/uL
HEMATOCRIT [3]: 33.37%
HEMOGLOBIN [3]: 13.47 G/DL
LEUKOCYTE COUNT [3]: 15.27 x10E3/uL
LYMPHOCYTE [3]: 95%
MEAN CORPUSCULAR HEMOGLOBIN [3]: 24.3 pg
MEAN CORPUSCULAR HEMOGLOBIN CONCENTRATION [3]: 40.33 G/DL
MEAN CORPUSCULAR VOLUME [3]: 60.17 fL
MONOCYTE [3]: 0.33%
NEUTROPHIL [3]: 4.67%
NUCLEATED RED BLOOD CELLS [3]: 0 /100WBC
PLATELET COUNT [3]: 1036.67 x10E3/uL
ALANINE AMINOTRANSFERASE [3]: 50.33 u/L
ALBUMIN [3]: 3.93 G/DL
ALKALINE PHOSPHATASE [3]: 347.67 u/L
ASPARTATE AMINOTRANSFERASE [3]: 100.33 u/L
BLOOD UREA NITROGEN [3]: 18 mg/dL
CARBON DIOXIDE [3]: 26 mmol/L
CHLORIDE [3]: 104 MEQ/L
CHOLESTEROL [3]: 57.67 mg/dL
CREATINE PHOSPHOKINASE [3]: 706.67 u/L
CREATININE [3]: 0.15 mg/dL
GLUCOSE [3]: 145.67 mg/dL
LACTATE DEHYDROGENASE [3]: 811.33 u/L
LIPASE [3]: 9.67 u/L
PHOSPHORUS [3]: 10.97 mg/dL
POTASSIUM [3]: 6.19 MEQ/L
SODIUM [3]: 144.13 MEQ/L
TOTAL BILIRUBIN [3]: 0.2 mg/dL
TOTAL PROTEIN [3]: 5.53 G/DL
URIC ACID [3]: 1.17 mg/dL
